The source of these data is patent US11866433B2, “Diarylthiohydantoin compound as androgen receptor antagonist” (CHIA TAI TIANQING PHARMACEUTICAL GROUP CO., LTD., priority 2017, dated 2024).

As usually defined, the pIC50 is −log10 of the IC50, conventionally taken in molar units. One may read the TGI as the reduction of tumour growth relative to the control group. Read a low TGI as little slowing of growth.

pIC50: −log10 of the molar value.

One test has as its target T1, androgen receptor (AR) (Homo sapiens, UniProt P10275).
T1 sequence (P10275 1-920): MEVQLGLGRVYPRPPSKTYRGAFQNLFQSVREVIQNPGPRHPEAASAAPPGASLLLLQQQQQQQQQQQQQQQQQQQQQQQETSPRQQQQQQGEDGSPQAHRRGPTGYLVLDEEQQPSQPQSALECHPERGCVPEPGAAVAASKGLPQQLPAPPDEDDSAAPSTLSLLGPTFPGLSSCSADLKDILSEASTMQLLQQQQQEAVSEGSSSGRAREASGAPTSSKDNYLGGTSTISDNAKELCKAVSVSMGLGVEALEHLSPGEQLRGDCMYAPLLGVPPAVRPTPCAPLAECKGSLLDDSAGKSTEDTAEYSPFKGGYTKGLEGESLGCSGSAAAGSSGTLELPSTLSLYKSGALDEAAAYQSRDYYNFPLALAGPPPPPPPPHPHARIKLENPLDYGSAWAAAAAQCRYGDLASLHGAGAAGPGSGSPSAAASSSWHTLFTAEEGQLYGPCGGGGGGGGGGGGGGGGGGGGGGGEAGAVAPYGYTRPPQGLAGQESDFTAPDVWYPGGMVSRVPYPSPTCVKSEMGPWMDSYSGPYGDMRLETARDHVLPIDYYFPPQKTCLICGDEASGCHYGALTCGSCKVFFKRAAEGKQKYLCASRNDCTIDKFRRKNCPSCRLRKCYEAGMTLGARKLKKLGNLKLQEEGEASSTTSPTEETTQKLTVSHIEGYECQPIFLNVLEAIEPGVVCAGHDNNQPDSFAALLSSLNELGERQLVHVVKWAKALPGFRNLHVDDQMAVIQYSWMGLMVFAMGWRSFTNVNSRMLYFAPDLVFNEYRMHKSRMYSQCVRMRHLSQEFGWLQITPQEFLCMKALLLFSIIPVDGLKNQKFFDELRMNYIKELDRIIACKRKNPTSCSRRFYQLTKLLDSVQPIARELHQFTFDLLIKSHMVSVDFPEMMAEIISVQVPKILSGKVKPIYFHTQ
In words: Antagonism of compounds on nuclear translocation of androgen receptor (PathHunter NHR cell lines). The class given is cell-based. The conditions noted are these: antagonist mode, agonist 6a-Fluorotestosterone 0.06 μM (EC80). The procedure: Example 75 Test of Antagonism of Compounds on Nuclear Translocation of Androgen Receptor (AR)
1. PathHunter NHR cell lines were recovered and cultured for amplification.
2. The cells were inoculated onto a 384-well plate prior to testing, and incubated at 37° C. The serum for culture was filtered with charcoal-dextran to reduce the hormone level therein.
3. In the detection of the antagonistic function, a compound was added to the cells and incubated for 60 min. The working concentration of the test compound was diluted from 10 μM at a 3-fold concentration gradient, respectively including: […]. Then, an agonist 6a-Fluorotestosterone 0.06 μM (concentration: EC80, i.e., 80% agonistic compound concentration) was added, and the mixture was incubated at 37° C. or at room temperature for 3-16 h.
4. Signal detection: 12.5 μL or 15 μL (50%, v/v) PathHunter detection mixed solution (kit: DiscoverX product catalog number: 93-0001 series) was added, and incubated at room temperature for 1 h. The chemiluminescent signal was read with a PerkinElmer Envision™ instrument.
5. Data analysis: The compound activity was analyzed with CBIS data analysis software (ChemInnovation, CA). The calculation formula of the inhibition percent of the antagonist is as follows: IC50 inhibition ratio (%)=[…]×(1−(average RLU value of the test compound−average RLU value of the blank control group)/(average RLU value of EC80 control group−average RLU value of the blank control group)).

Test [1] deals with Human prostate cancer LNCaP-FGC cells. In words: In vivo pharmacodynamic study on subcutaneous xenograft tumor model of human prostate cancer LNCaP-FGC cells. More on the design: species or system CB-17 SCID mice. The conditions noted are these: after 21 days of administration, vs solvent control. The procedure:
2.1 Experimental Animals • Species: Mice • Strain: CB-17 SCID mice • Week age and body weight: 6-8 weeks old, 18-22 g body weight • Gender: male • Supplier: Beijing Vital River Laboratory Animal Technology Co., Ltd • Animal Certificate No.: 11400700184227 3. Experimental Method and Steps 3.1 Cell Culture
Human prostate cancer LNCaP-FGC cells (ATCC, Manassas, Virginia) were cultured in vitro monolayers under the culture conditions of RPM11640 medium supplemented with […] fetal bovine serum at 37° C. with 5% CO2. Routine digestion treatment with trypsin-EDTA was performed twice a week for passage. When the cell saturation was 80%-90%, the cells were collected, counted, and inoculated.
0.2 mL (10×10^6) of LNCaP-FGC cells (10×10^6+Matrigel, 1:1) was inoculated subcutaneously to the right back of each CB-17 SCID mouse. When the average tumor volume reached 100-150 mm^3, administration in groups was started.
The tumor diameters were measured with a vernier caliper twice a week. The calculation formula of the tumor volume is: V=0.5a×b^2, wherein a and b represent the long diameter and the short diameter of the tumor, respectively. The antitumor efficacy of the compounds were evaluated by TGI (%) or a relative tumor proliferation rate T/C (%). TGI(%)=[(1−(average tumor volume of a treatment group at the end of drug administration−average tumor volume of the treatment group at the beginning of drug administration))/(average tumor volume of the vehicle control group at the end of treatment−average tumor volume of the vehicle control group at the beginning of treatment)]×100%. The calculation formula of the relative tumor proliferation rate T/C (%) is as follows: T/C %=TRTV/CRTV×100% (TRTV: RTV of a treatment group; CRTV: RTV of a negative control group). The relative tumor volume (RTV) is calculated based on the tumor measurement results, and the calculation formula is RTV=Vt/V0, wherein V0 is the average tumor volume measured at the time of administration in groups (i.e., do), Vt is the average tumor volume at one measurement, and TRTV and CRTV are the data obtained on the same day.
The statistical analysis includes mean and standard error of mean (SEM) of the tumor volume at each time point for each group. […] The comparison between two groups was analyzed by T-test, and the comparison between three or more groups was analyzed by one-way ANOVA. If there was a significant difference in the F value, the Games-Howell method was used for testing. If there was no significant difference in the F value, the Dunnet (2-sided) method was used for analysis. All data analysis was performed by using SPSS 17.0. “p<0.05” was considered a significant difference.
On the technique in general: A xenograft is tissue or cells of one species grown in another, often human tumour cells in immunodeficient mice.

At androgen receptor (AR), `CCc1nc(OCCO)c2cc(N3C(=S)N(c4ccc(C#N)c(C(F)(F)F)c4)C(=O)C3(C)C)cc(F)c2n1` [Compound 10] had a pIC50 of 5.77. Also, in test [1] (50 mg/kg PO QD), the tumour growth inhibition (TGI) was found to be 83.0% and the “relative tumor proliferation rate T/C” value is 23.8%.
At androgen receptor (AR), `CCc1cc(=O)n2cc(N3C(=S)N(c4ccc(C#N)c(C(F)(F)F)c4)C(=O)C3(C)C)cc(F)c2n1` [Compound 35] had a pIC50 of 5.64. In test [1] (10 mg/kg PO QD), the TGI is 59.36% and the “relative tumor proliferation rate T/C” value is reported as 47.39%. In test [1] (20 mg/kg PO QD), the TGI is reported as 76.00% and the “relative tumor proliferation rate T/C” value was determined as 32.47%.
The corresponding values for `CCc1cc(=O)n2cc(N3C(=S)N(c4ccc(C#N)c(Cl)c4)C(=O)C3(C)C)cc(F)c2n1` [Compound 58] are 6.02, 62.75%, 43.93%, 76.16% and 32.37%.
